This is an account of results in US20120095024A1, “TOLUIDINE SULFONAMIDES AND THEIR USE” (Elara Pharmaceuticals GmbH, priority 2008, published 2012).

What is called EC50 is the concentration needed to bring the measured effect to its halfway point. High values mean a less potent agent, low ones a more potent agent. A word on the IC50: it is the concentration at which inhibition is half-maximal. High values mean weaker potency in that assay, low ones greater potency in that assay. One may read the inhibition as the change of the read-out against control, counted positive when it falls. Read a high inhibition as a strong effect.

The subject of one experiment is HG1 cells. Briefly: Cell proliferation assay (ATPlite), HG-1. It is filed as cell-based. The following applies: inhibition of cell proliferation, 72 h. The procedure:
MCF-7 human breast adenocarcinoma cells and HL-60 acute promyelocytic leukaemia cells were obtained from ATCC (LGC Promochem). HG-1 multiple myeloma cells were obtained from Dr. D. Hose (DKFZ Heidelberg). The CellSensor® HRE-bla HCT116 cell line (colorectal carcinoma) was obtained from Invitrogen.
Cells were grown under humidified 95% air, 5% CO2 at 37° C. in Dulbecco's modified Eagle's medium (DMEM: MCF-7) or RPMI 1640 medium (RPMI: HL-60, HG-1) supplemented with 10% fetal bovine serum (FBS), 100 U/ml penicillin and 100 μg/ml streptomycin, 2 mM L-glutamine, and 2 ng/ml IL-6 (for the HG-1 cell line only). The HCT116 cell line was grown under the same atmospheric conditions in McCoy's 5A medium supplemented with 10% FBS and penicillin/streptomycin as above, in addition to blasticidin as a selection marker at a final concentration of 5 μg/ml.
Cell proliferation experiments were carried out in 96-well tissue culture plates with seeding of 2000 cells/well (MCF-7) or 1000 cells/well (HL-60, HG-1) in 100 μl of the relevant medium. Cells were subsequently incubated under the conditions mentioned for 24 h prior to addition of compounds.
For the determination of compound EC50 values, 10 μl compounds at 11× concentrations in 5.5% DMSO were added to the wells at various concentrations yielding a final constant percentage of 0.5% DMSO at the desired 1× compound concentration. As a positive control, cells were treated with 5.5% DMSO. The cells were then incubated for a further 72 h prior to the measurement.
To determine the degree of inhibition of cell proliferation, cells were treated with ATPlite solution according to the manufacturer's instructions (PerkinElmer, ATPlite 1-step Luminescence ATP Detection Assay System) and luciferase readout measured on an Envision HTS multilabel plate reader (PerkinElmer) in luminescence mode according to established protocols. Raw data were imported into an ActivityBase database (IDBS, ID Business Solutions) and EC50 values calculated using the IDBS program ActivityBase XE. Table 2A and 2B show the IC50 values obtained in the above-outlined cell proliferation assay for exemplary compounds of the invention.
A general note: Cellular ATP, detected with luciferase, serves as a proxy for viable cell number.

The subject of the next experiment is MCF7 cells. Briefly: Cell proliferation assay (ATPlite), MCF-7. It is filed as cell-based, human. Particulars: Homo sapiens, inhibition of cell proliferation, 72 h. The procedure, abridged: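 Cells seeded (MCF-7 2000/well, HG-1 1000/well in RPMI with 2 ng/ml IL-6), then after 24 h exposed to compound at 0.5% DMSO final for 72 h. Proliferation read as ATP luminescence (ATPlite); EC50 calculated from the dose-response.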

The next experiment deals with caspase-3/7. Briefly: Activation of apoptosis, Caspase-Glo 3/7 in HG-1 cells. The following applies: caspase-3/7 activation, 24 h. It is filed as cell-based. As to the method: Activation of caspase-3/7 signal following treatment with test compounds was carried out using a Caspase-Glo® 3/7 kit (Promega). In brief, HG-1 cells were seeded at a concentration of 1000 cells/well in 50 μl medium into 96-well plates and incubated for 24 h under the conditions described previously. Compounds at various concentrations were then added to the wells (at all final concentrations 0.5% DMSO) and incubated for a further 24 h period. The plates were subsequently removed from the incubator and allowed to equilibrate to room temperature, after which 50 μl Caspase-Glo reagent was added to all wells, the plate shaken at 300 rpm for 30 s, and luminescence measured after a 30 min incubation period on an Envision HTS (PerkinElmer).

Experiment [1] relates to estrogen receptor (ER)-mediated transcriptional activity. Briefly: Inhibition of estrogen receptor (ER) signaling, ERE-tk-luc transfection assay in MCF-7 cells. In kind it is cell-based. The following applies: Homo sapiens, MCF7, ERE-tk-luc luciferase readout, 24 h. The procedure: To determine the effect of the compounds on estrogen receptor (ER)-mediated transcriptional activity a transfection assay using the MCF-7 cell line was performed. A luciferase-coupled ERE-tk-luc construct was obtained from Dr. G. Reid (EMBL).
In brief, MCF-7 cells were maintained as described previously and seeded on the first experimental day at a concentration of 3500 cells/well in 100 μl medium and incubated under standard conditions for 24 h. Following this initial incubation period, transfection was carried out using 5 ng of the ERE-tk-luc construct (per well) and Exgene 500 transfection reagent (Fermentas) in a final buffered solution containing 150 mM NaCl and 20 mM Tris pH 8.4. The plates were then maintained for 3-4 hours until cell culture conditions in the incubator before compounds were added at 11× concentrations to yield the final desired compound concentrations in 0.5% DMSO (in the same manner as for the proliferation assays described previously).
After an additional 24 h incubation period the degree of inhibition of ER-signaling was determined via a luciferase readout. Cells were treated with Britelite™ plus solution according to the manufacturer's instructions (PerkinElmer, britelite plus, Ultra-High Sensitivity Luminescence Reporter Gene Assay System) and luciferase levels measured on an Envision HTS multilabel plate reader (PerkinElmer) in luminescence mode according to established protocols. Raw data were imported into an ActivityBase database (IDBS, ID Business Solutions) and IC50 values calculated using the IDBS program ActivityBase XE.

Experiment [2] relates to HIF mediated transcription. Briefly: Inhibition of activation of HIF mediated transcription under hypoxic conditions (CellSensor HRE-bla HCT-116). It is filed as cell-based. The following applies: Homo sapiens; HRE-bla HCT-116 cells, deferoxamine-induced hypoxia, 24 h. The procedure:
Inhibition of an activated HIF signaling response under chemically-induced hypoxic conditions due to compound treatment was determined using the CellSensor® HRE-bla HCT-116 stably transfected reporter cell line from Invitrogen according to the manufacturer's instructions. HIF is a transcriptional factor composed of the constitutively expressed HIF1β subunit and one of three HIFα subunits (HIF1α, HIF2α, HIF3α). This assay is responsive towards HIFa activity in general. In one example, HIF-1, when stabilized by hypoxic conditions, upregulates several genes to promote cell survival in low-oxygen conditions. These include glycolysis enzymes, which allow ATP synthesis in an oxygen-independent manner, and vascular endothelial growth factor (VEGF), which promotes angiogenesis. HIF-1 acts by binding to HIF-responsive elements (HREs) in promoters that generally contain the sequence NCGTG.
Cells were maintained as described previously and seeded into 384-well, clear-bottom plates (Corning 3712) at 15000 cells/well in 32 μl assay medium (Opti-MEM [Invitrogen], 0.5% FBS, 100 U/ml penicillin, 100 μg/ml streptomycin, 0.1 mM non-essential amino acids [NEAA], 1 mM sodium pyruvate, 5 mM HEPES [pH 7.3]). Following a 2 h incubation period, compounds (4 μl) were subsequently added to the cells at 10× concentrations in 5% DMSO and incubated under normal conditions for 30 min. To induce hypoxic conditions, 4 μl of a 2 mM deferoxamine (DFO) solution was added to the cells followed by 24 h incubation under standard assay conditions (as described). Control wells included wells containing only medium (no cells) and wells treated with 0.5% DMSO instead of compound.
Prior to the readout, the Substrate Loading Solution was prepared as described in the manufacturer's protocol and 10 μl added to each well. Following a further 2 h incubation period at room temperature and in the dark, fluorescence was measured at two wavelengths (blue channel: ex. 409 nm, em. 460 nm; green channel: ex. 409 nm, em. 530 nm) on a PerkinElmer Envision HTS. For the analysis, the average signal of the cell-free wells at 460 nm and 530 nm was first subtracted from the blue and green channel data, respectively. The blue/green emission ratios were then calculated for each well, dividing the background-corrected blue emission values by the background-corrected green emission values. IC50 values were determined from these ratios using GraphPad Prism (Prism 5, GraphPad software, Inc.).

The next experiment addresses T1, tubulin (Sus scrofa, UniProt P02550+P02554).
T1 construct: prepared in-house from porcine brain using a standard procedure involving cycles of polymerization/de-polymerization; from tissue; host or cells: porcine brain
Briefly: Inhibition of in vitro tubulin polymerization. In kind it is biochemical, porcine. Particulars: final absorbance 340 nm at 90 min. As to the method: To assess the degree of inhibition of in vitro tubulin polymerization, a tubulin solution (prepared in-house from porcine brain using a standard procedure involving cycles of polymerization/de-polymerization, see Castoldi & Popov (2003) Protein Expr. Purif. 32(1): 83-88) was incubated with varying concentrations of compounds under polymerizing conditions and kinetic experiments performed to determine the amount of polymerization (as measured by changes in OD at 340 nm) taking place over a 90 min period.
Compound solutions were diluted in double-distilled water to yield final 10× solutions containing 5% DMSO. 5 μl solutions were then added to the wells on a 384-well clear-bottom plate (Corning #3711, Corning Inc.) in preparation for the addition of tubulin. The tubulin solution (19.6 mg/ml, in 80 mM K-PIPES [pH 6.8], 1 mM MgCl2, 1 mM EGTA) was re-suspended to a final concentration of 4 mg/ml with ice cold G-PEM buffer (80 mM PIPES [pH 6.8], 2 mM MgCl2, 0.5 mM EGTA, 10% glycerol, 1 mM GTP) and maintained on ice for at least 1 min. 50 μl was then added to the pre-dispensed compound solutions, the plate orbital shaken on a medium setting for 5 s, and the first measurement begun immediately.
Experiments were carried out on a Safire^2™ monochromator (Tecan) preset to a stable temperature of 37° C.; the degree of polymerization was determined by measuring the absorbance of the solutions at 340 nm every minute over the 90 min cycle. Reported inhibition values were based on the final absorbance at 90 min and calculated with reference to a vehicle control (0.5% DMSO) using the minimum and maximum signals obtained for this sample.

T1 sequence (P02550 whole entry): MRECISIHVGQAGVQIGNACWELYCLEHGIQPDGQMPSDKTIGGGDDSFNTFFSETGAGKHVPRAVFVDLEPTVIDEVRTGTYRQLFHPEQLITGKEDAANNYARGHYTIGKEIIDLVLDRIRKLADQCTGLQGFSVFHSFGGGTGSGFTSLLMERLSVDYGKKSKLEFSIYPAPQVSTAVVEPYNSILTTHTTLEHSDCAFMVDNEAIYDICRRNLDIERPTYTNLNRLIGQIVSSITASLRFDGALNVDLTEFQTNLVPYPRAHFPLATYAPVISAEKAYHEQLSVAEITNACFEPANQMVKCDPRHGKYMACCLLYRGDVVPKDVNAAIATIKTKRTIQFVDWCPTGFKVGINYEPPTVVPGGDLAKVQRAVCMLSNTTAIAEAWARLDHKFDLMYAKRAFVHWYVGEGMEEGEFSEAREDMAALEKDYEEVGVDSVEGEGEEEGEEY
T1 sequence (P02554 whole entry): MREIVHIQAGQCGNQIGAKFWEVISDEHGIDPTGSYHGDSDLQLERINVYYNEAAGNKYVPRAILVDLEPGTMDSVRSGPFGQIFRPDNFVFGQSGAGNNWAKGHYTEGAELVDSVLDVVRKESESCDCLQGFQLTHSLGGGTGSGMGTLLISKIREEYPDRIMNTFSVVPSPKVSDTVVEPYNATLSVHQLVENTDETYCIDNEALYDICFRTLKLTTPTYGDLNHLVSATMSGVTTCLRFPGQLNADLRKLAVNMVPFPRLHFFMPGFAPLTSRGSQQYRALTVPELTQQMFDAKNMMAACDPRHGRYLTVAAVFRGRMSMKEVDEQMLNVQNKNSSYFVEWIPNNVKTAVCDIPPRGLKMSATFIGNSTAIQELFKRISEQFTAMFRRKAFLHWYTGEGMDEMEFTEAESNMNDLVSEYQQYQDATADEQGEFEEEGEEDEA

As to `Cc1ccc(S(=O)(=O)Nc2cc(-c3ccc(C#N)s3)ccc2C)cc1` [Example 47, N-[5-(5-Cyano-thiophen-2-yl)-2-methyl-phenyl]-4-methyl-benzenesulfonamide], the half-maximal effective concentration (EC50) with HG1 cells, with MCF7 cells and in the experiment with caspase-3/7 was less than 500 nM in each case. Also, the IC50 in experiment [1] is less than 500 nM.

Take `COc1ccc(S(=O)(=O)Nc2cc(-c3ccc(C#N)s3)ccc2C)cc1` [Example 51, N-[5-(5-Cyano-thiophen-2-yl)-2-methyl-phenyl]-4-methoxy-benzenesulfonamide]: the EC50 (in experiment [2]; with HG1 cells; with MCF7 cells; in the experiment on caspase-3/7) was less than 500 nM each time.

For the molecule `COc1ccc(S(=O)(=O)Nc2cc(-c3cc(C#N)cs3)ccc2C)cc1` [Example 56, N-[5-(4-Cyano-thiophen-2-yl)-2-methyl-phenyl]-4-methoxy-benzenesulfonamide], the inhibition at 10 µM on tubulin was more than 50%. Further, the EC50 in the experiment with MCF7 cells and with caspase-3/7 was less than 500 nM in each case.

Molecule `Cc1ccc(S(=O)(=O)Nc2cc(-c3ccc(C#N)cc3)ccc2C)cc1` [Example 60, N-(4′-Cyano-4-methyl-biphenyl-3-yl)-4-methyl-benzenesulfonamide] gave an inhibition at 10 µM on tubulin of less than 20%. Also, the EC50 with MCF7 cells and in the experiment on caspase-3/7 was less than 500 nM throughout. In addition, the IC50 in experiment [1] is less than 500 nM.

Take `COc1ccc(S(=O)(=O)Nc2cc(-c3ccc(C#N)cc3)ccc2C)cc1` [Example 63, N-(4′-Cyano-4-methyl-biphenyl-3-yl)-4-methoxy-benzenesulfonamide]: the inhibition at 10 µM at tubulin was less than 20%. Besides, the EC50 in the experiment on MCF7 cells and with caspase-3/7 was less than 500 nM in each case.
